Laboratory results as given in ChEMBL document CHEMBL5724796, “Tm Shift (DSF) assay results for EUbOPEN Chemogenomics Library” (2024).
“And” between values parts separate entries of the source, which are not always exact repeats. Equal values may be shown once. Residues, ends and D or L forms follow the SMILES beside them. *: point of attachment. Cbz = O=C(OCc1ccccc1)*; CH2Cl = ClC*; CH2F = FC*

Legend:
Peregrin (Homo sapiens) = target: T1, Peregrin (Homo sapiens) (UniProt P55201); details: Compound concentration 20.0 uM
T1 sequence (whole entry): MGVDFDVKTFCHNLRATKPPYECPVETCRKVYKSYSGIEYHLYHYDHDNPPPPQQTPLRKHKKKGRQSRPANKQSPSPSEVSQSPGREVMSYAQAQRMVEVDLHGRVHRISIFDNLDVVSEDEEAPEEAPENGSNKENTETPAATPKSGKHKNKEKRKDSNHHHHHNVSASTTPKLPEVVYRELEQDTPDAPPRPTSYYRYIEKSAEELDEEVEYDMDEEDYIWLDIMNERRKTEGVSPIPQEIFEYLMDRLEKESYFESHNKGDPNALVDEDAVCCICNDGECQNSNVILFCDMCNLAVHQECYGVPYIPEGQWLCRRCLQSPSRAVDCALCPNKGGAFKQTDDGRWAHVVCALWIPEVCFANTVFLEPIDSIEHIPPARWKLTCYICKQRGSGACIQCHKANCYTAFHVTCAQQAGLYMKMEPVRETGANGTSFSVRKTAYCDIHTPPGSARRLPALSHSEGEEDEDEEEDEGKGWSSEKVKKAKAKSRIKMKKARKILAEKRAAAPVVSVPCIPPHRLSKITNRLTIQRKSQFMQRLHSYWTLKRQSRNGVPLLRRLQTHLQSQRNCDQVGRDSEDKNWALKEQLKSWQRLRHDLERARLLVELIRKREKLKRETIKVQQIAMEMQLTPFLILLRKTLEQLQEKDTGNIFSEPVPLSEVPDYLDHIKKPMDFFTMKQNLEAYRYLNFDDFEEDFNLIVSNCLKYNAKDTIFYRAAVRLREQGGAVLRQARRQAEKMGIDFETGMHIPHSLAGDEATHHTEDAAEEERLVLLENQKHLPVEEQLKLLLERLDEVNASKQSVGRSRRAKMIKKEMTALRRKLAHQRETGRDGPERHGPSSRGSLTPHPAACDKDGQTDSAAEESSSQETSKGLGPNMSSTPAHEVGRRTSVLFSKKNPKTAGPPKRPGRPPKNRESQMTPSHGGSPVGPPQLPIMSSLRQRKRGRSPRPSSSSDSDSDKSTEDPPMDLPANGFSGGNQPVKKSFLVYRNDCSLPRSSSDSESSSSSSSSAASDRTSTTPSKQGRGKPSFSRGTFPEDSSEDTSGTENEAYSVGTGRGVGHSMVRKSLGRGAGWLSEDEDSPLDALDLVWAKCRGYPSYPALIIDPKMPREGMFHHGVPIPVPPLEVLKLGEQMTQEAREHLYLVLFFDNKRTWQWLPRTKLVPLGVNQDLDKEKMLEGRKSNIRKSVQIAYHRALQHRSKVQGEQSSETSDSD

[1] = target: Fibroblast growth factor receptor 2 (Homo sapiens) (UniProt P21802); details: Compound concentration 20.0 uM
Fibroblast growth factor receptor 2 (Homo sapiens), sequence (P21802 22-821 limits assumed): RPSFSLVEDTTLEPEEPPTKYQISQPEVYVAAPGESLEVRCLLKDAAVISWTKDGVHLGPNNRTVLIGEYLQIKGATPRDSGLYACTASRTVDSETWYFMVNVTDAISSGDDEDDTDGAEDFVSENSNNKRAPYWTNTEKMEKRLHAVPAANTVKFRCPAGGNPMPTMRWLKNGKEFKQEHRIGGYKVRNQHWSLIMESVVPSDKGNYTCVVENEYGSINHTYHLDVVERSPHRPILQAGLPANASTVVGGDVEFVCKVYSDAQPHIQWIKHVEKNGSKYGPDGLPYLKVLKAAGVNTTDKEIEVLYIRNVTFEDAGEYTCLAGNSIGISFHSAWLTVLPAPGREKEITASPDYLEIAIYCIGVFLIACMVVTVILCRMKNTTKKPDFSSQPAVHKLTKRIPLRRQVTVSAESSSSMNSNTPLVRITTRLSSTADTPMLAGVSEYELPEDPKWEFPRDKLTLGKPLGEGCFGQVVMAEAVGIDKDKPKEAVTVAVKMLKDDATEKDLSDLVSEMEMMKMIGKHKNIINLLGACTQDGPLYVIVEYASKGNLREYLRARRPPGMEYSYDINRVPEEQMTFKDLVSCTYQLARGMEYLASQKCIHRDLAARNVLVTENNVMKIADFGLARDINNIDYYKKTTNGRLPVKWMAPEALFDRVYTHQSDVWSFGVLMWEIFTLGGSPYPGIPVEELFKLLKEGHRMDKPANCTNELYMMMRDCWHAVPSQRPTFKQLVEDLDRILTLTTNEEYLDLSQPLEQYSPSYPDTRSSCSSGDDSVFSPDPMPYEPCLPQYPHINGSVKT
Description: Thermal Shift Assay. Domain: start/stop: T457-E768

Structure (SMILES) | ΔTm (Peregrin (Homo sapiens)) | ΔTm [1]
CC(=O)N[C@@H](CC(C)C)C(=O)N[C@@H](CCC(=O)O)C(=O)N[C@@H](Cc1cnc[nH]1)C(=O)N[C@@H](CC(=O)O)C(=O)CCl (Ac-LEHD-CH2Cl) | -1.13 °C | 0.65 °C
Cc1ncsc1-c1ccc(CNC(=O)[C@@H]2C[C@@H](O)CN2C(=O)[C@@H](NC(=O)COCCOCCOc2ccc(-c3ccc4ncnc(Nc5ccc(OCc6cccc(F)c6)c(Cl)c5)c4c3)cc2)C(C)(C)C)cc1 | 0 °C | -3.99 °C
COC(=O)CC[C@H](NC(=O)[C@H](C)NC(=O)OCc1ccccc1)C(=O)N[C@H](C(=O)N[C@@H](CC(=O)OC)C(=O)CF)C(C)C (Cbz-AE(OMe)VD(OMe)-CH2F) | -0.82 °C | 0.54 °C
Cc1ccnc(NS(=O)(=O)c2ccc(NC(=O)Nc3ccc(S(=O)(=O)Nc4nccc(C)n4)cc3)cc2)n1 | 0.27 °C | -0.47 °C
Nc1ccc(-c2cccs2)cc1NC(=O)c1ccc2nc(N3CCNCC3)ccc2c1 | 0.96 °C | 0.98 °C
Cc1cccc(N/N=C(\C(=O)c2cccs2)C(=O)C(F)(F)F)c1 | 1.4 °C | -0.22 °C
CCCCCCCCCCCCC/C=C/[C@@H](O)[C@H](CO)NC(=O)CCl | 0.52 °C | 0.03 °C
COc1cc2/c(=N/c3ccc(Br)cc3F)nc[nH]c2cc1OCC1CCN(C)CC1 | -0.84 °C | 5.47 °C
Nc1nc(NC2CC2)cc(-c2cccc(Cl)c2Cl)n1 | 0.95 °C | 0.04 °C
O=C(CCCCCCNC(=O)c1cnc(N(c2ccccc2)c2ccccc2Cl)nc1)NO | -1.49 °C | 0.65 °C
CCO/N=C1\c2ccccc2-c2nc(C#N)c(C#N)nc21 | 2.55 °C and 0.36 °C | 0.21 °C and 0.32 °C
CCOC(=O)NCCCC(=O)NCCc1ccccc1 | -0.92 °C | 0.51 °C
COc1cc(O)cc(CN2CCc3c(cc(Cn4ccn(C)c4=N)cc3-c3ccc(F)cc3C)C2=O)c1 | -1.15 °C | -1.31 °C
O=c1[nH]c(N2CCC3(CC2)CN(CCO)c2cc(F)cc(F)c23)nc2c1CCCC2 | 1.75 °C | -0.52 °C
CC(C)(C)OC(=O)Nc1ccc(-c2cc(C(=O)NCCCCCCC(=O)NO)no2)cc1 | 0 °C | -3.33 °C
O=C(NC1CCC1)c1ccc2nc(-c3cccc(NS(=O)(=O)NCCN4CCCCC4)c3)cn2c1 | 1.25 °C | -0.11 °C
O=C1Cc2cc(C(=O)N[C@@H]3C[C@H]4CC[C@@H](C3)N4S(=O)(=O)CC3CCN(CCCC(F)(F)F)CC3)c(Cl)cc2N1 | -0.66 °C | -0.16 °C
O=CC1CCCN1C(=O)C1CCCN1C(=O)OCc1ccccc1 (stereo not drawn) (Cbz-Pro-Pro-aldehyde; configuration not given here) | -0.94 °C | 0.49 °C
NC(=O)[C@H]1CCCCc2c1[nH]c1ccc(Cl)cc21 | 0.13 °C | 1.09 °C
COc1cc(C)[nH]c(=O)c1CNC(=O)c1c(C)n([C@H](C)C2CCOCC2)c2ccccc12 | -1.84 °C | 0.42 °C
Cn1cc(-c2ccncc2)c(-c2ccc(OCc3ccc4ccccc4n3)cc2)n1 | 0.25 °C | 0.48 °C
CCNC(=O)/C=C/c1cccc(Br)c1 | -1.37 °C | -0.4 °C
O=C(Nc1ccccc1C(=O)O)c1cc(S(=O)(=O)c2ccccc2)ccc1Cl | 0.95 °C | -0.48 °C
Nc1cc2c3c(c1)C(c1ccccc1)=N[C@@H](NC(=O)c1cccnc1)C(=O)N3CC2 | 0.71 °C | 0.08 °C
Cc1ncsc1-c1ccc(CNC(=O)[C@@H]2C[C@@H](O)CN2C(=O)[C@@H](NC(=O)COCC(C)(COCCOCCOCCNC(=O)C[C@@H]2N=C(c3ccc(Cl)cc3)c3c(sc(C)c3C)-n3c(C)nnc32)COCCOCCOCCNC(=O)C[C@@H]2N=C(c3ccc(Cl)cc3)c3c(sc(C)c3C)-n3c(C)nnc32)C(C)(C)C)cc1 | -5.29 °C | -1.18 °C
C=CCO/N=C1\c2ccccc2-c2nc(C#N)c(C#N)nc21 | 2.37 °C | 0.66 °C
Nc1nc(C(F)(F)F)nc2c1nnn2C[C@H]1CN(Cc2nccs2)CCO1 | 1.22 °C | 0.48 °C
CCN1C(C)(C)CC(Oc2ccc(C(=O)Nc3ccc(NC(=O)Nc4cc(C(C)(C)C)on4)cc3)nc2)CC1(C)C | -1.03 °C | -2 °C
